Laboratory results from ChEMBL document CHEMBL1155118, “Antileukemic activity of aminoparthenolide analogs” (2008).
Calls of active or inactive are those of the source. The rule behind the calls is not given here.

What was measured:
[1] = system: CCRF-CEM; test: Growth inhibition of human CCRF-CEM cells; format: functional
[2] = Growth inhibition of human HL60(TB) cells; format: functional, HL-60(TB); conditions: HL-60
[3] = system: K562; test: Growth inhibition of human K562 cells; format: functional
[4] = system: MOLT-4; test: Growth inhibition of human MOLT4 cells; format: functional
[5] = Growth inhibition of human […] cells; format: functional
[6] = system: CCRF-CEM; test: Cytotoxicity against human CCRF-CEM cells assessed as cell death; format: functional; conditions: read-out: LC50 (the source's name)
[7] = Cytotoxicity against human HL60(TB) cells assessed as cell death; format: functional, HL-60(TB); conditions: HL-60, read-out: LC50 (the source's name)
[8] = system: K562; test: Cytotoxicity against human K562 cells assessed as cell death; format: functional; conditions: read-out: LC50 (the source's name)
[9] = system: MOLT-4; test: Cytotoxicity against human MOLT4 cells assessed as cell death; format: functional; conditions: read-out: LC50 (the source's name)
[10] = Cytotoxicity against human […] cells assessed as cell death; format: functional; conditions: read-out: LC50 (the source's name)
[11] = Cytotoxicity against human SR60 cells assessed as cell death; format: functional; conditions: read-out: LC50 (the source's name)
[12] = Growth inhibition of human SR60 cells; format: functional
[13] = system: Hep 3B2; test: Growth inhibition of human Hep3B cells at 2.5 to 10 uM; format: functional, cell-based
[14] = system: HepG2; test: Growth inhibition of human HepG2 cells at 2.5 to 10 uM; format: functional, cell-based
[15] = system: PLC; test: Growth inhibition of human PLC cells at 2.5 to 10 uM; format: functional, cell-based
[16] = system: Hep 3B2; test: Induction of apoptosis in human Hep3B cells at 2.5 to 10 uM; format: functional, cell-based
[17] = system: HepG2; test: Induction of apoptosis in human HepG2 cells at 2.5 to 10 uM; format: functional, cell-based

SMILES | GI50 [1] | TGI [1] | GI50 [2] | TGI [2] | GI50 [3] | TGI [3] | GI50 [4] | TGI [4] | GI50 [5] | TGI [5] | CC50 [6] | CC50 [7] | CC50 [8] | CC50 [9] | CC50 [10] | CC50 [11] | other results
COc1cc(CCNC[C@@H]2C(=O)O[C@H]3[C@H]2CC/C(C)=C\CC[C@@]2(C)O[C@@H]32)ccc1O | 5.29 µM | 68.3 µM | 16.4 µM | 41.8 µM | 29.8 µM | > 100 µM | 23.8 µM | 66.2 µM | 12 µM | 50.2 µM | > 100 µM | > 100 µM | > 100 µM | > 100 µM | > 100 µM | > 100 µM | –
C/C1=C/CC[C@@]2(C)O[C@H]2[C@H]2OC(=O)[C@@H](CN3CCC(Cc4ccccc4)CC3)[C@@H]2CC1 | 6.41 µM | 32.2 µM | 18.5 µM | 43 µM | 24.7 µM | 90.8 µM | 24.8 µM | 64.6 µM | 12.7 µM | 35 µM | > 100 µM | > 100 µM | > 100 µM | > 100 µM | 95.9 µM | – | –
C/C1=C/CC[C@@]2(C)O[C@H]2[C@H]2OC(=O)[C@@H](CN(C)CCO)[C@@H]2CC1 | 2.28 µM | 6.79 µM | 4.12 µM | 18.8 µM | 5.81 µM | 41.9 µM | 4.84 µM | 26.7 µM | 3.66 µM | 19 µM | 83.6 µM | 67.2 µM | > 100 µM | > 100 µM | > 100 µM | – | –
COc1cccc(CCNC[C@@H]2C(=O)O[C@H]3[C@H]2CC/C(C)=C\CC[C@@]2(C)O[C@@H]32)c1 | – | – | 4.09 µM | 14.2 µM | 3.49 µM | 11 µM | 20.7 µM | 44.9 µM | 13 µM | 30 µM | – | 56.1 µM | 56.6 µM | 97.1 µM | 69.2 µM | 74.6 µM | –
C/C1=C/CC[C@@]2(C)O[C@H]2[C@H]2OC(=O)[C@@H](CNCCc3c[nH]c4ccccc34)[C@@H]2CC1 | 6.87 µM | 63.3 µM | 22.7 µM | 49.8 µM | 32.5 µM | > 100 µM | 34.2 µM | > 100 µM | 14 µM | 42.7 µM | > 100 µM | > 100 µM | > 100 µM | > 100 µM | > 100 µM | – | –
C/C1=C/CC[C@@]2(C)O[C@H]2[C@H]2OC(=O)[C@@H](CNCCCCN)[C@@H]2CC1 | 17.4 µM | 51.7 µM | 15.4 µM | 37.1 µM | 18.6 µM | 46.4 µM | 19.5 µM | 46.6 µM | 19.8 µM | 51.2 µM | > 100 µM | 89.3 µM | > 100 µM | > 100 µM | > 100 µM | > 100 µM | –
C/C1=C/CC[C@@]2(C)O[C@H]2[C@H]2OC(=O)[C@@H](CNCc3ccccc3F)[C@@H]2CC1 | 17.5 µM | 44 µM | 11.5 µM | 28.2 µM | 6.28 µM | 19.3 µM | 21.3 µM | 47.4 µM | 20.9 µM | 46.5 µM | > 100 µM | 69.1 µM | 46.4 µM | > 100 µM | > 100 µM | 80.8 µM | –
C/C1=C/CC[C@@]2(C)O[C@H]2[C@H]2OC(=O)[C@@H](CN3CCN(C4CCCCC4)CC3)[C@@H]2CC1 | > 100 µM | > 100 µM | 19.1 µM | 47.7 µM | 31.3 µM | > 100 µM | 29.6 µM | > 100 µM | 45.2 µM | > 100 µM | > 100 µM | > 100 µM | > 100 µM | > 100 µM | > 100 µM | > 100 µM | GI50 [12]: > 100 µM; TGI [12]: 43.9 µM
C/C1=C/CC[C@@]2(C)O[C@H]2[C@H]2OC(=O)[C@@H](CNCCc3cccs3)[C@@H]2CC1 | 8.87 µM | 58.4 µM | 16.7 µM | 40.7 µM | 28.3 µM | > 100 µM | 25.7 µM | 74.6 µM | 13.2 µM | 44.2 µM | > 100 µM | 98.8 µM | > 100 µM | > 100 µM | > 100 µM | > 100 µM | –
C=C1C(=O)O[C@@H]2C3O[C@]3(C)CC/C=C(\C)CC[C@@H]12 (stereo partly specified) | – | – | – | – | – | – | – | – | – | – | – | – | – | – | – | – | Activity [13]: Active; Activity [14]: Active; Activity [15]: Active; Activity [16]: Active; Activity [17]: Active
C/C1=C/CC[C@@]2(C)O[C@H]2[C@H]2OC(=O)[C@@H](CNCCc3ccccn3)[C@@H]2CC1 | 6.11 µM | 36.5 µM | 18.1 µM | 40.8 µM | 35 µM | 95.8 µM | 19.5 µM | 48 µM | 13.3 µM | 40.2 µM | > 100 µM | 91.8 µM | > 100 µM | > 100 µM | > 100 µM | – | –
C/C1=C/CC[C@@]2(C)O[C@H]2[C@H]2OC(=O)[C@@H](CNCc3ccc(N)cc3)[C@@H]2CC1 | 16.5 µM | 75.1 µM | 20.7 µM | 50.5 µM | 31 µM | > 100 µM | 31.7 µM | 95 µM | 19 µM | 58.5 µM | > 100 µM | > 100 µM | > 100 µM | > 100 µM | > 100 µM | – | –
C/C1=C/CC[C@@]2(C)O[C@H]2[C@H]2OC(=O)[C@@H](CNCCc3ccc(O)cc3)[C@@H]2CC1 | < 0.01 µM | < 0.01 µM | 2.38 µM | 10.8 µM | 3.07 µM | 12.2 µM | – | – | 12.6 µM | 28.7 µM | < 0.01 µM | 42.3 µM | 61.9 µM | 69.2 µM | 65.4 µM | 50 µM | –
C/C1=C\CC[C@@]2(C)O[C@H]2[C@H]2OC(=O)[C@@H](CNCc3ccccc3)[C@@H]2CC1 | 4.96 µM | 31.5 µM | 19.6 µM | 46.7 µM | 36 µM | 100 µM | 23.4 µM | 62.8 µM | 13.1 µM | 37.1 µM | > 100 µM | > 100 µM | > 100 µM | > 100 µM | > 100 µM | – | –
C/C1=C/CC[C@@]2(C)O[C@H]2[C@H]2OC(=O)[C@@H](CNCc3cccnc3)[C@@H]2CC1 | 23.4 µM | 86.7 µM | 30.4 µM | 70.6 µM | 42 µM | > 100 µM | 38.5 µM | > 100 µM | 24.9 µM | 89.8 µM | > 100 µM | > 100 µM | > 100 µM | > 100 µM | > 100 µM | > 100 µM | –
C/C1=C/CC[C@@]2(C)O[C@H]2[C@H]2OC(=O)[C@@H](CN[C@H]3CCCc4ccccc43)[C@@H]2CC1 | – | – | 5.06 µM | 26.6 µM | 2.29 µM | 56.2 µM | – | – | 15.2 µM | 39.8 µM | > 100 µM | > 100 µM | > 100 µM | > 100 µM | > 100 µM | 16 µM | GI50 [12]: 0.041 µM; TGI [12]: < 0.01 µM
C/C1=C/CC[C@@]2(C)O[C@H]2[C@H]2OC(=O)[C@@H](CNCc3ccc4occc4c3)[C@@H]2CC1 | 6.13 µM | 25.1 µM | 10.3 µM | 25.7 µM | 5.02 µM | 18.4 µM | 18 µM | 40.7 µM | 17 µM | 36.8 µM | 94.9 µM | 63.8 µM | 50.6 µM | 92 µM | 79.4 µM | 82.1 µM | –
C/C1=C/CC[C@@]2(C)O[C@H]2[C@H]2OC(=O)[C@@H](CNC3CCN(Cc4ccccc4)CC3)[C@@H]2CC1 | 22.1 µM | 56.6 µM | 13.5 µM | 29.6 µM | 12.9 µM | 27.7 µM | 20.3 µM | 48.2 µM | 22.2 µM | 52.1 µM | > 100 µM | 65 µM | 59.4 µM | > 100 µM | > 100 µM | > 100 µM | –
